From EP0292365A2, “4-Amino-5,8-quinazolindione derivatives, process for their preparation and pharmaceutical compositions containing them” (CENTRE NATIONAL DE LA RECHERCHE SCIENTIFIQUE, priority 1987, dated 1988)
Like-named read-outs stand apart in the source and are kept apart here.

Assays:
leucémie L1210 = conditions: J. Med. Chem. 1983, 26, pp. 1715-1719; cited from earlier work
cellules L1210 = conditions: J. Med. Chem. 1983, 26, pp. 1715-1719; cited from earlier work
sarcome 180 = conditions: J. Med. Chem. 1983, 26, pp. 1715-1719; cited from earlier work
leucémie murine P388 = conditions: J. Med. Chem. 1983, 26, pp. 1715-1719; cited from earlier work
[1] = J. Med. Chem. 1983, 26, pp. 1715-1719; cited from earlier work
mélanocarcinome B16 = conditions: J. Med. Chem. 1983, 26, pp. 1715-1719; cited from earlier work
[2] = test system: cellules leucémiques L 1210; assay: In vitro cytotoxicity: growth inhibition of L 1210 leukemia cells (Coulter count); assay type: cell-based, souris; conditions: Mus musculus, L1210, 48 h, read-out: CI50 après 48 h de culture
Description: La détermination de la cytotoxicité in vitro sur les cellules leucémiques L 1210 est la méthode utilisée pour sélectionner les molécules potentiellement antitumorales. Le protocole mis en oeuvre est le suivant :
les cellules leucématiques L 1210 adaptées à la culture en suspension stationnaire sont entretenues dans du milieu RPMI 1640 (commercialisé par Seromed) additionné de 20 % de sérum de cheval décomplémenté, L-glutamine (2 mM), pénicilline (200 U/ml), streptomycine (50µg/ml) et cultivées à 37° C dans une atmosphère à 5 % de C02. Les cultures testées par la méthode de BARILE (BARILE M.F. Mycoplasmal contamination of cell culture, in Contamination in Tissue Culture, J. Fogh (ed.) Acad. Press, 132-156, 1973) sont exemptes de contaminations bactériennes et mycoplasmiques.
Pour les expérimentations, les cellules sont ensemencées à la concentration de 0,8.10^5 cellules/ml et cultivées par 2 ml dans des flacons de 15 ml. Les substances à étudier sont dissoutes dans du DMSO (1 % final) dont on a préalablement vérifié l'innocuité. Des quantités croissantes de produit à tester sont ajoutées au temps 0 et des numérations sont faites au compteur COULTER après 24 et 48 heures de culture. Des séries de contrôle sont effectuées avec des quantités de DMSO équivalentes à celles des séries traitées.
Le temps de doublement des cellules témoins est approximativement de 12 heures.
La cytotoxicité est déterminée d'après l'inhibition de croissance des cellules L 1210, calculée par rapport aux témoins correspondants selon la formule : [formula] • T = concentration de cellules non traitées, • t = concentration de cellules traitées.
La concentration de produit qui diminue la croissance cellulaire de 50 % (Clso) est calculée d'après la méthode des régressions linéaires en coordonnées log-probit.
Lorsque la Cl50 est voisine de la micromolarité (égale ou inférieure à 1 µM), il existe une présomption d'activité antitumorale et les essais in vivo indiqués ci-après sont effectués.
A titre d'exemple, la CI50 mesurée 48 heures après traitement des cellules par les composés de l'invention testés est la suivante : […]

[3] = Solubility in water (statement); assay type: physicochemical
Leucémie P388 = assay type: in vivo, souris DBA/2; conditions: for Animaux survivants/ animaux traités / T/C / ΔP (J5-J1): P388, greffe ip (10^6 cel), ip J1, suspension dans le Klucel; for activité antitumorale comparée: compared with the quinazolinedione of J. Med. Chem. 1983, 26, 1715-1719
Text: Afin de tester l'activité antitumorale des composés décrits plus haut, on a utilisé les leucémies murines P388 et L1210, ainsi que le mélanome murin B16. La leucémie P388 est considère comme très sensible et permet une première sélection. D'autre part, une substance ayant une grande activité sur la leucémie L1210 a une grande chance d'être active en clinique humaine (J.M. Venditti; Relevance of transplantable animal tumor systems to the Selection of new agents for clinical trial in pharmacological basis of cancer chemotherapy. The University of Texas ed. Williams and Wilkins, publ. 1975, Baltimore USA).
Cette étude a été réalisée sur 1, 2 ou 3 tumeurs murines expérimentales selon le schéma suivant :
Les produits en solution dans l'eau ou en suspension dans du Klucel sont administrés par voie intrapéritonéale 24 heures après la greffe des cellules tumorales (10 animaux par série), soit en injection unique (J1), soit pendant 9 jours consécutifs (Ji-9). Les morts sont relevés chaque jour à la même heure. La comparaison du temps médian de survie des souris témoins (C) et des souris traitées (T) permet d'apprécier l'activité antitumorale du produit. On adopte comme critère d'activité minimale la valeur de T/C supérieure ou égale à 125 % conformément aux critères établis par GERAN et par l'O.M.S. (Réf. GERAN R.I., GREENBERG N.H., MACDONALD M.M., SCHUMACHER A.M. and ABBOTT B.J. Protocols for screening chemical agents and natural products against animal tumors and other biological systems. Cancer Chemother. Rep. Part 3, 3, 1-103 (1972)).
Lorsque le composé est actif sur plusieurs tumeurs, son administration par d'autres voies que la voie intrapéritonéale (i.p.) est envisagée : orale (p.o) et intraveineuse (i.v). Les résultats des essais effectués à l'aide du composé 63 sont rassemblés dans le tableau IV ci-après.
Les résultats des essais effectués à l'aide des composés de l'invention n° 57 et 59 sont rassemblés dans le tableau IV Bis ci-après.
Dans les tableaux IV et IV Bis, P représentent la variation de poids entre J1 et J5 des animaux traités; lorsque P est supérieure à environ 4 g, cela signifie que la dose à laquelle le composé a été testé est toxique.

[4] = Determination of toxicity (DLo), single intraperitoneal dose; assay type: in vivo; conditions: voie intrapéritonéale, dose unique, souris Swiss, suivies pendant un mois
Text: Ils sont tous administrés, par voie intrapéritonéale (ip), à des souris Swiss de 22 ± 2 g, à doses uniques exprimées en mg/kg de poids corporel. Les animaux sont suivis pendant un mois. La mortalité et les signes de toxicité sont relevés. On détermine ainsi la DLoqui sera la dose maximale utilisée pour la détermination de l'activité antitumorale.

SMILES | IC50 [2] [nM] | solubilité dans l'eau [3] | Animaux survivants/ animaux traités (Leucémie P388; 5 mg/kg) | T/C (Leucémie P388; 5 mg/kg) [%] | ΔP (J5-J1) (Leucémie P388; 5 mg/kg) | Animaux survivants/ animaux traités (Leucémie P388; 2,5 mg/kg) | T/C (Leucémie P388; 2,5 mg/kg) [%] | ΔP (J5-J1) (Leucémie P388; 2,5 mg/kg) | activité antitumorale comparée (Leucémie P388) | DLo [4] | other results
O=C1C(N2CC2)=C(N2CC2)C(=O)c2ncncc21 [bis(aziridinyl-1)-6,7 quinazolinedione-5,8] |  |  |  |  |  |  |  |  |  |  | activité antitumorale in vivo sur la leucémie L1210 (leucémie L1210): ne présente pas d'activité antitumorale significative; cytotoxicité in vitro sur les cellules L1210 (cellules L1210): cytotoxique; activité antitumorale in vivo sur le sarcome 180 (sarcome 180): ne présente pas d'activité antitumorale significative; activité antitumorale in vivo sur la leucémie murine P388 (leucémie murine P388): une certaine activité antitumorale; activité par voie orale [1]: n'est pas actif; activité in vivo sur le mélanocarcinome B16 (mélanocarcinome B16): très faible activité
O=C1C(N2CC2)=C(N2CC2)C(=O)c2c(NCCCCCCCNc3ncnc4c3C(=O)C(N3CC3)=C(N3CC3)C4=O)ncnc21 [compound 54] | 3.7 |  |  |  |  |  |  |  |  |  | 
O=C1C(N2CC2)=C(N2CC2)C(=O)c2c(NCCOCCOCCNc3ncnc4c3C(=O)C(N3CC3)=C(N3CC3)C4=O)ncnc21 [compound 59] | 18 | insolubles dans l'eau | 10/10 | 133 | -1,1 g | 10/10 | 115 | -0,5 g | nettement plus actifs | ~10 mg/kg | Animaux survivants/ animaux traités (Leucémie P388; 10 mg/kg): 10/10; T/C (Leucémie P388; 10 mg/kg): 135%; ΔP (J5-J1) (Leucémie P388; 10 mg/kg): -1,8 g; Animaux survivants/ animaux traités (Leucémie P388; 15 mg/kg): 07/10; T/C (Leucémie P388; 15 mg/kg): 145%; ΔP (J5-J1) (Leucémie P388; 15 mg/kg): -4,1 g
CN(CCCNc1ncnc2c1C(=O)C(N1CC1)=C(N1CC1)C2=O)CCCNc1ncnc2c1C(=O)C(N1CC1)=C(N1CC1)C2=O [compound 57] | 4.8 | insolubles dans l'eau | 10/10 | 168 | -4,2 g | 10/10 | 150 | -1,8 g | nettement plus actifs | ~2,5 mg/kg | Animaux survivants/ animaux traités (Leucémie P388; 1,25 mg/kg): 06/06; T/C (Leucémie P388; 1,25 mg/kg): 137%; ΔP (J5-J1) (Leucémie P388; 1,25 mg/kg): -1,0 g
COC1=CC(=O)c2ncnc(NCCCN3CCC(C4CCN(CCCNc5ncnc6c5C(=O)C(OC)=CC6=O)CC4)CC3)c2C1=O [compound 70] |  |  |  |  |  |  |  |  |  |  | IC50 ([2]; L 1210 cells, 48 heures après traitement): 1300 nM
